The values below are quoted from earlier work in patent US20090317451A1, “PRESSURE-SENSITIVE ADHESIVE FOR SKIN SURFACE AND/OR TRANSDERMAL SUBSTANCE DELIVERY” (priority 2008, published 2009).

Structures can show the parent of a compound that is named as a salt.

The conditions of the first data set: solvent(s) in which soluble; Merck 12th edition or other reference.
For `C#C[C@]1(OC(C)=O)CC[C@H]2[C@@H]3CCC4=CC(=O)CC[C@@H]4[C@H]3CC[C@@]21C` [Norethindrone acetate], the “Reported Solubility” value is listed as “Alcohol”. On to `O=C(CCCN1CCC(O)(c2ccc(Cl)cc2)CC1)c1ccc(F)cc1` [Haloperidol], for which the “Reported Solubility” value is “Alcohol”. Take `CC(=O)N1CCN(c2ccc(OCC3COC(Cn4ccnc4)(c4ccc(Cl)cc4Cl)O3)cc2)CC1` (centres unmarked) [Ketoconazole]: the “Reported Solubility” value is “Alcohol”. For `Cc1cc(C2CCCCC2)n(O)c(=O)c1` [Ciclopirox], the “Reported Solubility” value is “Alcohol”. As for `COc1cc(/C=C/C(=O)CC(=O)/C=C/c2ccc(O)c(OC)c2)ccc1O` [Curcumin], the “Reported Solubility” value was “Alcohol”. `CC(=O)O[C@H]1C(=O)[C@@]2(C)[C@H]([C@H](OC(=O)c3ccccc3)[C@]3(O)C[C@H](OC(=O)[C@H](O)[C@@H](NC(=O)c4ccccc4)c4ccccc4)C(C)=C1C3(C)C)[C@]1(OC(C)=O)CO[C@@H]1C[C@@H]2O` [Paclitaxel]: the “Reported Solubility” value was “Alcohol”.

In the case of `Cc1ncc([N+](=O)[O-])n1CCO` [Netronidazole], the “Reported Solubility” value was “Water, alcohol”. In the case of `Nc1nc2c(ncn2COCCO)c(=O)[nH]1` [Acyclovir], the “Reported Solubility” value is recorded as “Alcohol”. Consider `CC(=O)OCC(CCn1cnc2cnc(N)nc21)COC(C)=O` [Famciclovir], for which the “Reported Solubility” value was “Alcohol”.

Turning to `CC(C)(C)NCC(O)c1ccc(O)c(CO)c1` (centres unmarked) [Albuterol], the “Reported Solubility” value is recorded as “Alcohol”. Turning to `CC(CN1c2ccccc2Sc2ccccc21)N(C)C` (centres unmarked) [Promethazine], the “Reported Solubility” value is on record as “Alcohol”.

Take `Oc1ccc(C2CNCCc3c2cc(O)c(O)c3Cl)cc1` (centres unmarked) [Fenoldopam]: the “Reported Solubility” value was “Alcohol”.

Regarding `CC[C@H]1OC(=O)[C@H](C)[C@@H](O[C@H]2C[C@@](C)(OC)[C@@H](O)[C@H](C)O2)[C@H](C)[C@@H](O[C@@H]2O[C@H](C)C[C@H](N(C)C)[C@H]2O)[C@](C)(O)C[C@@H](C)C(=O)[C@H](C)[C@@H](O)[C@]1(C)O` [Erythromycin hydrate], the “Reported Solubility” value is “Alcohol”.

As to `CN(C/C=C/C#CC(C)(C)C)Cc1cccc2ccccc12` [Terbinafinehydrochloride], the “Reported Solubility” value is given as “Alcohol”. Regarding `Nc1nc2c(ncn2CCC(CO)CO)c(=O)[nH]1` [Penciclovir], the “Reported Solubility” value is on record as “Water”. In the case of `COc1cccc2c1C(=O)c1c(O)c3c(c(O)c1C2=O)C[C@@](O)(C(=O)CO)C[C@@H]3O[C@H]1C[C@H](N)[C@H](O)[C@H](C)O1` [Doxorubicin], the “Reported Solubility” value was “Alcohol”. Turning to `CC(=O)Oc1ccccc1C(=O)O` [Aspirin, acetylsalicylic acid], the “Reported Solubility” value is on record as “Alcohol”. As for `CC(=O)Nc1ccc(O)cc1` [Acetaminophen], the “Reported Solubility” value is listed as “Alcohol”.

As for `CC12CCC(CC1=O)C2(C)C` (centres unmarked) [Camphor], the “Reported Solubility” value is reported as “Alcohol”. In the case of `CS(C)(=O)=O` [MSM, dimethyl sulfone, dimethyl sulfone], the “Reported Solubility” value is on record as “Alcohol”.

As to `CC[C@@H]1C(=O)OC[C@@H]1Cc1cncn1C` [Pilocarpine], the “Reported Solubility” value is reported as “Alcohol”. Consider `CC(C)Cn1cnc2c(N)nc3ccccc3c21` [Imiquimod], for which the “Reported Solubility” value is listed as “Glycerol +”. For `CC(C)Cc1ccc(C(C)C(=O)O)cc1` (centres unmarked) [Ibuprofen], the “Reported Solubility” value is “Alcohol”. Take `CCOC(=O)c1ccc(N)cc1` [Benzocaine]: the “Reported Solubility” value was “Alcohol”.

The data set is the same for the next values; noted with them: solvent(s) in which soluble; Merck 12th edition or other reference; listed as Liquimod.
On to `CC(C)Cn1cnc2c(N)nc3ccccc3c21` [Imiquimod], for which the “Reported Solubility” value is on record as “Alcohol”.

For a further data set the following is noted: in glycerol; Merck 12th edition #886.
On to `CC(=O)Oc1ccccc1C(=O)O` [Aspirin, acetylsalicylic acid], for which the decomposition by moisture result is listed as “glycerol hinders the decomposition”.
